Results taken from patent EP4596574A1, “GLP-1/GCG/GIP TRIPLE-RECEPTOR AGONIST AND USE THEREOF” (Sunshine Lake Pharma Co., Ltd., priority 2022, dated 2024).
Starred links: 1 amine or outer side, 2 acyl side, 3 side chain; linkers in the order of their positions; H or OH if unused. Non-standard residues stand in square brackets, D forms with d. Residues, ends and D or L forms follow the SMILES beside them. Groups on a side chain read outwards from the residue. *: point of attachment. C20 diacid = O=C(O)CCCCCCCCCCCCCCCCCCC(=O)*; C18 diacid = O=C(O)CCCCCCCCCCCCCCCCC(=O)*; αMePhe(2-F) = C[C@](N)(Cc1ccccc1F)C(=O)O; γGlu = O=C(O)[C@H](CCC(=O)[*:2])N[*:1]; AEEA = NCCOCCOCC(=O)O; Aib = CC(C)(N)C(=O)O

Columns and labels:
Assay type in all cases: cell-based
GIPR = molecular target: T1, GIPR (Homo sapiens, UniProt P48546); assay: In vitro cell activity, cAMP production in HEK293 cells expressing GIPR; conditions: HEK293-GIPR cells, cAMP; read-out: GIPR (EC50)
T1 construct: expressed in transfected cells; host or cells: HEK293 (HEK293-GIPR)
T1 sequence (P48546 22-466): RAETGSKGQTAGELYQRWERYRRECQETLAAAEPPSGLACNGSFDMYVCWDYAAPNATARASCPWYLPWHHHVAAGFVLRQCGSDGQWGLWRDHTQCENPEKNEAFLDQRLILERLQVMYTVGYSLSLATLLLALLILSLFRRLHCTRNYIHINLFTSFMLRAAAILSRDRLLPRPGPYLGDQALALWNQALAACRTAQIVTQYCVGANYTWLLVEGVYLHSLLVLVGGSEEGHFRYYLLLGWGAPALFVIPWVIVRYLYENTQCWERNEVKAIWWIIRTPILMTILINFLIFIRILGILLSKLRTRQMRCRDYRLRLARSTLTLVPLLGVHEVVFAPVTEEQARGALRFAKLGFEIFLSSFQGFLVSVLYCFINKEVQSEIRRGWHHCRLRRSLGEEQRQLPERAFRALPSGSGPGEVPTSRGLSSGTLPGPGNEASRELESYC
Method in brief: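 HEK293 cells expressing human GIPR, thawed and diluted to 4×10^5 cells/mL, are stimulated with test compound. cAMP is measured by HTRF competition between cAMP-d2 and anti-cAMP cryptate. EC50 comes from a four-parameter nonlinear fit of signal ratio against concentration.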

GLP-1R = molecular target: T2, GLP-1R (Homo sapiens, UniProt P43220); assay: In vitro cell activity, cAMP production in HEK293 cells expressing GLP-1R; conditions: HEK293-GLP-1R cells, cAMP; read-out: GLP-1R (EC50)
T2 construct: expressed in transfected cells; host or cells: HEK293 (HEK293-GLP-1R)
Method in brief: (§1)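 cAMP output read as 665/620 nm HTRF ratio after adding cAMP-d2 plus anti-cAMP cryptate and incubating 1 h at room temperature in the dark or overnight at 4 °C. Cells: HEK293 expressing human GLP-1R or GCGR, plated from a 4×10^5 cells/mL suspension. Four-parameter fit gives EC50.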

GCGR = molecular target: T3, GCGR (Homo sapiens, UniProt P47871); assay: In vitro cell activity, cAMP production in HEK293 cells expressing GCGR; conditions: HEK293-GCGR cells, cAMP; read-out: GCGR (EC50)
T3 construct: expressed in transfected cells; host or cells: HEK293 (HEK293-GCGR)
Method in brief: as §1

T2 sequence (P43220 24-463, species assumed): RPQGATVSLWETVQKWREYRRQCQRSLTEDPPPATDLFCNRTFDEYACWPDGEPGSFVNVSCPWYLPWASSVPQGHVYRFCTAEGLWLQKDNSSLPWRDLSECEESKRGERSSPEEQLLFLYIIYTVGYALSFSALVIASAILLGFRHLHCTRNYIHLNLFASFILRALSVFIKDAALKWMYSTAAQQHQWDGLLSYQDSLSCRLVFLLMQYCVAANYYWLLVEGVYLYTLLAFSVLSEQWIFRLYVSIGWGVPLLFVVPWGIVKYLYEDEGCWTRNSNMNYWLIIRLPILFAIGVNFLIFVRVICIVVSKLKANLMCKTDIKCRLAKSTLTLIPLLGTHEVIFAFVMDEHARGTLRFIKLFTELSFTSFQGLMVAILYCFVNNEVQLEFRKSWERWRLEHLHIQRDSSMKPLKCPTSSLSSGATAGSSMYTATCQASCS
T3 sequence (P47871 26-477, species assumed): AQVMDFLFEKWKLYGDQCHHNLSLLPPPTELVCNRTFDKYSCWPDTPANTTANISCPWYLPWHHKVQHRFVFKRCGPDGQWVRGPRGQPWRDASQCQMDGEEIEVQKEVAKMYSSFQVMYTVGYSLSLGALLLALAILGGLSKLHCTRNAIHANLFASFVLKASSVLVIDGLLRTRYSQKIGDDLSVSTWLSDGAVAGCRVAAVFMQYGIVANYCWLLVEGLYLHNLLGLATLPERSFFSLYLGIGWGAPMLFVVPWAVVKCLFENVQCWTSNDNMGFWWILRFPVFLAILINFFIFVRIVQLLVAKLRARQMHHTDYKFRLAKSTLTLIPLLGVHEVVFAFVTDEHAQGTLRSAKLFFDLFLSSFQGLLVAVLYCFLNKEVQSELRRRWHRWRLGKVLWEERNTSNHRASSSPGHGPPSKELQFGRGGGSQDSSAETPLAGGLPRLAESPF

| SMILES | EC50 (GIPR) | EC50 (GLP-1R) | EC50 (GCGR) |
| --- | --- | --- | --- |
| CC[C@H](C)[C@H](NC(=O)[C@H](Cc1ccccc1)NC(=O)[C@H](C)NC(=O)C(C)(C)NC(=O)[C@H](CCC(N)=O)NC(=O)[C@H](CCCNC(=N)N)NC(=O)[C@@H](NC(=O)[C@H](CCCCN)NC(=O)[C@H](CC(=O)O)NC(=O)[C@H](CCCCNC(=O)COCCOCCNC(=O)CC[C@H](NC(=O)CCCCCCCCCCCCCCCCC(=O)O)C(=O)O)NC(=O)[C@H](CC(C)C)NC(=O)[C@@H](NC(=O)[C@H](CO)NC(=O)[C@H](Cc1ccc(O)cc1)NC(=O)[C@H](CC(=O)O)NC(=O)[C@H](CO)NC(=O)[C@@H](NC(=O)[C@](C)(Cc1ccccc1F)NC(=O)[C@@H](NC(=O)CNC(=O)[C@H](CCC(N)=O)NC(=O)C(C)(C)NC(=O)[C@@H](N)Cc1ccc(O)cc1)[C@@H](C)O)[C@@H](C)O)[C@@H](C)CC)[C@@H](C)CC)C(=O)N[C@@H](CCC(=O)O)C(=O)N[C@@H](Cc1ccc(O)cc1)C(=O)N[C@@H](CC(C)C)C(=O)N[C@@H](CC(C)C)C(=O)N[C@@H](CCC(=O)O)C(=O)NCC(=O)NCC(=O)N1CCC[C@H]1C(=O)N[C@@H](CO)C(=O)N[C@@H](CO)C(=O)NCC(=O)N[C@@H](C)C(=O)N1CCC[C@H]1C(=O)N1CCC[C@H]1C(=O)N1CCC[C@H]1C(=O)N[C@@H](CO)C(N)=O [HEC-PT144] | 0.0221 nM | 0.173 nM | 0.0366 nM |
| CC[C@H](C)[C@H](NC(=O)[C@H](Cc1ccccc1)NC(=O)[C@H](C)NC(=O)[C@H](CCC(N)=O)NC(=O)[C@H](CCC(N)=O)NC(=O)[C@H](C)NC(=O)[C@H](CCCCNC(=O)COCCOCCNC(=O)CC[C@H](NC(=O)CCCCCCCCCCCCCCCCCCC(=O)O)C(=O)O)NC(=O)[C@H](CCC(=O)O)NC(=O)[C@H](CC(=O)O)NC(=O)[C@H](CC(C)C)NC(=O)[C@H](CC(C)C)NC(=O)[C@@H](NC(=O)[C@H](CO)NC(=O)[C@H](Cc1ccc(O)cc1)NC(=O)[C@H](CC(=O)O)NC(=O)[C@H](CO)NC(=O)[C@@H](NC(=O)[C@](C)(Cc1ccccc1F)NC(=O)[C@@H](NC(=O)CNC(=O)[C@H](Cc1c[nH]cn1)NC(=O)C(C)(C)NC(=O)[C@@H](N)Cc1ccc(O)cc1)[C@@H](C)O)[C@@H](C)O)[C@@H](C)CC)C(=O)N[C@@H](CCC(=O)O)C(=O)N[C@@H](Cc1ccc(O)cc1)C(=O)N[C@@H](CC(C)C)C(=O)N[C@@H](CC(C)C)C(=O)N[C@@H](C)C(=O)NCC(=O)NCC(=O)N1CCC[C@H]1C(=O)N[C@@H](CO)C(=O)N[C@@H](CO)C(=O)NCC(=O)N[C@@H](C)C(=O)N1CCC[C@H]1C(=O)N1CCC[C@H]1C(=O)N1CCC[C@H]1C(=O)N[C@@H](CO)C(=O)O [HEC-PT81] | 0.132 nM | 0.409 nM | 0.382 nM |
| CC[C@H](C)[C@H](NC(=O)[C@H](Cc1ccccc1)NC(=O)[C@H](C)NC(=O)[C@H](CCCNC(=N)N)NC(=O)[C@H](CCC(N)=O)NC(=O)[C@H](CCCNC(=N)N)NC(=O)[C@H](CCCCNC(=O)COCCOCCNC(=O)CC[C@H](NC(=O)CCCCCCCCCCCCCCCCC(=O)O)C(=O)O)NC(=O)[C@H](CCC(=O)O)NC(=O)[C@H](CC(=O)O)NC(=O)[C@H](CC(C)C)NC(=O)[C@H](CC(C)C)NC(=O)[C@@H](NC(=O)[C@H](CO)NC(=O)[C@H](Cc1ccc(O)cc1)NC(=O)[C@H](CC(=O)O)NC(=O)[C@H](CO)NC(=O)[C@@H](NC(=O)[C@](C)(Cc1ccccc1F)NC(=O)[C@@H](NC(=O)CNC(=O)[C@H](Cc1c[nH]cn1)NC(=O)C(C)(C)NC(=O)[C@@H](N)Cc1ccc(O)cc1)[C@@H](C)O)[C@@H](C)O)[C@@H](C)CC)C(=O)N[C@@H](CCC(=O)O)C(=O)N[C@@H](Cc1ccc(O)cc1)C(=O)N[C@@H](CC(C)C)C(=O)N[C@@H](CC(C)C)C(=O)N[C@@H](CCC(=O)O)C(=O)NCC(=O)NCC(=O)N1CCC[C@H]1C(=O)N[C@@H](CO)C(=O)N[C@@H](CO)C(=O)NCC(=O)N[C@@H](C)C(=O)N1CCC[C@H]1C(=O)N1CCC[C@H]1C(=O)N1CCC[C@H]1C(=O)N[C@@H](CO)C(=O)O [HEC-PT120] | 0.188 nM | 0.406 nM | 0.2 nM |
| CC[C@H](C)[C@H](NC(=O)[C@H](CCCCN)NC(=O)[C@H](CC(=O)O)NC(=O)[C@H](CCCCNC(=O)COCCOCCNC(=O)CC[C@H](NC(=O)CCCCCCCCCCCCCCCCCCC(=O)O)C(=O)O)NC(=O)[C@H](CC(C)C)NC(=O)[C@@H](NC(=O)[C@H](CO)NC(=O)[C@H](Cc1ccc(O)cc1)NC(=O)[C@H](CC(=O)O)NC(=O)[C@H](CO)NC(=O)[C@@H](NC(=O)[C@](C)(Cc1ccccc1F)NC(=O)[C@@H](NC(=O)CNC(=O)[C@H](CCC(N)=O)NC(=O)C(C)(C)NC(=O)[C@@H](N)Cc1ccc(O)cc1)[C@@H](C)O)[C@@H](C)O)[C@@H](C)CC)C(=O)N[C@@H](C)C(=O)N[C@@H](CCC(N)=O)C(=O)NC(C)(C)C(=O)N[C@@H](C)C(=O)N[C@@H](Cc1ccccc1)C(=O)N[C@H](C(=O)N[C@@H](CCC(=O)O)C(=O)N[C@@H](Cc1ccc(O)cc1)C(=O)N[C@@H](CC(C)C)C(=O)N[C@@H](CC(C)C)C(=O)N[C@@H](C)C(=O)NCC(=O)NCC(=O)N1CCC[C@H]1C(=O)N[C@@H](CO)C(=O)N[C@@H](CO)C(=O)NCC(=O)N[C@@H](C)C(=O)N1CCC[C@H]1C(=O)N1CCC[C@H]1C(=O)N1CCC[C@H]1C(=O)N[C@@H](CO)C(N)=O)[C@@H](C)CC [HEC-PT138] (H-Y[Aib]QGT[αMePhe(2-F)]TSDYSILK([AEEA-γGlu-C20 diacid])DKIAQ[Aib]AFIEYLLAGGPSSGAPPPS-NH2) | 0.0649 nM | 0.271 nM | 0.175 nM |
| CC[C@H](C)[C@H](NC(=O)[C@H](Cc1ccccc1)NC(=O)[C@H](C)NC(=O)[C@H](CCC(N)=O)NC(=O)[C@H](CCC(N)=O)NC(=O)[C@H](CCCNC(=N)N)NC(=O)[C@@H](NC(=O)[C@H](CCCNC(=N)N)NC(=O)[C@H](CC(=O)O)NC(=O)[C@H](CCCCNC(=O)COCCOCCNC(=O)CC[C@H](NC(=O)CCCCCCCCCCCCCCCCC(=O)O)C(=O)O)NC(=O)[C@H](CC(C)C)NC(=O)[C@@H](NC(=O)[C@H](CO)NC(=O)[C@H](Cc1ccc(O)cc1)NC(=O)[C@H](CC(=O)O)NC(=O)[C@H](CO)NC(=O)[C@@H](NC(=O)[C@](C)(Cc1ccccc1F)NC(=O)[C@@H](NC(=O)CNC(=O)[C@H](CCC(N)=O)NC(=O)C(C)(C)NC(=O)[C@@H](N)Cc1ccc(O)cc1)[C@@H](C)O)[C@@H](C)O)[C@@H](C)CC)[C@@H](C)CC)C(=O)N[C@@H](CCC(=O)O)C(=O)N[C@@H](Cc1ccc(O)cc1)C(=O)N[C@@H](CC(C)C)C(=O)N[C@@H](CC(C)C)C(=O)N[C@@H](CCC(=O)O)C(=O)NCC(=O)NCC(=O)N1CCC[C@H]1C(=O)N[C@@H](CO)C(=O)N[C@@H](CO)C(=O)NCC(=O)N[C@@H](C)C(=O)N1CCC[C@H]1C(=O)N1CCC[C@H]1C(=O)N1CCC[C@H]1C(=O)N[C@@H](CO)C(=O)O [HEC-PT146] (H-Y[Aib]QGT[αMePhe(2-F)]TSDYSILK([AEEA-γGlu-C18 diacid])DRIRQQAFIEYLLEGGPSSGAPPPS-OH) | 0.105 nM | 0.365 nM | 0.121 nM |
